Numbers after ± are expanded uncertainties.
Assay: xn = mol fraction of the nth substance listed
Settings: 101 kPa, Liquid; for viscosity: Capillary tube (Ostwald / Ubbelohde) method; for mass density: Pycnometric method

C=C(C)C(=O)OCCO [2-hydroxyethyl 2-methyl-2-propenoate] + CCCCO
Settings | mass density, 288.15 K [kg/m3] | mass density, 298.15 K [kg/m3] | mass density, 308.15 K [kg/m3] | mass density, 318.15 K [kg/m3] | viscosity, 288.15 K [mPa·s] | viscosity, 298.15 K [mPa·s] | viscosity, 308.15 K [mPa·s] | viscosity, 318.15 K [mPa·s]
x2 = 0 | 1074.7 ± 2.4 | 1067.1 ± 2.4 | 1057.7 ± 2.4 | 1048.6 ± 2.4 | 8.234 ± 0.19 | 5.784 ± 0.13 | 4.194 ± 0.096 | 3.181 ± 0.073
x2 = 0.1 | 1054.5 ± 2.4 | 1047.1 ± 2.3 | 1037.9 ± 2.3 | 1029.1 ± 2.3 | 7.303 ± 0.17 | 5.188 ± 0.12 | 3.822 ± 0.087 | 2.963 ± 0.068
x2 = 0.2 | 1033.3 ± 2.3 | 1025.9 ± 2.3 | 1016.9 ± 2.3 | 1008.3 ± 2.2 | 6.437 ± 0.14 | 4.643 ± 0.11 | 3.432 ± 0.077 | 2.692 ± 0.061
x2 = 0.3 | 1010.9 ± 2.2 | 1003.6 ± 2.2 | 994.8 ± 2.2 | 986.3 ± 2.2 | 5.681 ± 0.13 | 4.154 ± 0.093 | 3.109 ± 0.07 | 2.43 ± 0.054
x2 = 0.4 | 987.3 ± 2.1 | 980 ± 2.1 | 971.3 ± 2.1 | 963 ± 2.1 | 5.118 ± 0.11 | 3.738 ± 0.083 | 2.829 ± 0.063 | 2.222 ± 0.049
x2 = 0.5 | 962.2 ± 2.1 | 955.1 ± 2.1 | 946.6 ± 2 | 938.3 ± 2 | 4.633 ± 0.1 | 3.398 ± 0.075 | 2.598 ± 0.057 | 2.051 ± 0.045
x2 = 0.6 | 935.7 ± 2 | 928.6 ± 2 | 920.3 ± 2 | 912.1 ± 2 | 4.195 ± 0.092 | 3.092 ± 0.068 | 2.399 ± 0.052 | 1.9 ± 0.042
x2 = 0.7 | 907.6 ± 1.9 | 900.6 ± 1.9 | 892.4 ± 1.9 | 884.4 ± 1.9 | 3.833 ± 0.083 | 2.834 ± 0.062 | 2.212 ± 0.048 | 1.759 ± 0.038
x2 = 0.8 | 877.7 ± 1.8 | 870.8 ± 1.8 | 862.9 ± 1.8 | 855 ± 1.8 | 3.534 ± 0.076 | 2.666 ± 0.057 | 2.089 ± 0.045 | 1.657 ± 0.036
x2 = 0.9 | 846 ± 1.8 | 839.2 ± 1.8 | 831.5 ± 1.7 | 823.8 ± 1.7 | 3.321 ± 0.071 | 2.583 ± 0.055 | 2.018 ± 0.043 | 1.609 ± 0.035
